Where “and” joins values, the source holds several entries; their conditions need not be identical. Identical values can stand only once.
Tests used:
[1] = Stability of the non-lyophilized test composition under refrigeration (Example 13); type: physicochemical; conditions: freshly compounded test composition, refrigerator, 0 to 120 hours
[2] = Storage stability of the lyophilized test composition (Table 27); type: physicochemical
Method: The lyophilized composition was stored in a glass container with rubber closure and crimp seal under refrigeration for 6 months and at −20° C. for 24 months.

[3] = Stability of the filtered solution prior to lyophilization by HPLC (Example 2); type: physicochemical; conditions: room temperature
Method: Stability Analysis: Prior to lyophilization, the stability of the filtered solution was analyzed by HPLC. The solution was held at room temperature for 4 hours, and samples of the solution was analyzed by HPLC during the period of time. […] Further, about 100% of sodium valproate remained in the solution.

[4] = Stability of reconstituted higher concentration formulation at 2-8° C. for 8 hours (Table D); type: physicochemical; conditions: Post Lyo
[5] = Stability of the reconstituted test composition in refrigerated syringes (Example 13); type: physicochemical; conditions: for time assay levels remained stable with initial levels: reconstituted test composition in polypropylene syringes, refrigerated
[6] = Order of compounding of the test composition (Example 11, Table 26); type: physicochemical; conditions: organic solvents
Method: The first step in the sequence of compounding was to add pre-weighed solid sodium valproate to the stock P407 aqueous solution over ice. The temperature of P407 solution is important to keep the viscosity of this thermoreversible polymer in a liquid free-flowing state. After a clear solution was obtained, the CHIR99021-DMSO stock solution was added slowly to the NaVPA-P407-water solution. […] CHIR99021 also begins to degrade after extended periods of time in solution.

[7] = Perilymph Conc. listed for agents (Tables 14-25)
[8] = Table 18; cited from earlier work
[9] = biological target: T1, KDM1b (Homo sapiens, UniProt Q8NB78); conditions: Table 18; read-out: Select KDM1b; cited from earlier work
T1 sequence (Q8NB78 1-822): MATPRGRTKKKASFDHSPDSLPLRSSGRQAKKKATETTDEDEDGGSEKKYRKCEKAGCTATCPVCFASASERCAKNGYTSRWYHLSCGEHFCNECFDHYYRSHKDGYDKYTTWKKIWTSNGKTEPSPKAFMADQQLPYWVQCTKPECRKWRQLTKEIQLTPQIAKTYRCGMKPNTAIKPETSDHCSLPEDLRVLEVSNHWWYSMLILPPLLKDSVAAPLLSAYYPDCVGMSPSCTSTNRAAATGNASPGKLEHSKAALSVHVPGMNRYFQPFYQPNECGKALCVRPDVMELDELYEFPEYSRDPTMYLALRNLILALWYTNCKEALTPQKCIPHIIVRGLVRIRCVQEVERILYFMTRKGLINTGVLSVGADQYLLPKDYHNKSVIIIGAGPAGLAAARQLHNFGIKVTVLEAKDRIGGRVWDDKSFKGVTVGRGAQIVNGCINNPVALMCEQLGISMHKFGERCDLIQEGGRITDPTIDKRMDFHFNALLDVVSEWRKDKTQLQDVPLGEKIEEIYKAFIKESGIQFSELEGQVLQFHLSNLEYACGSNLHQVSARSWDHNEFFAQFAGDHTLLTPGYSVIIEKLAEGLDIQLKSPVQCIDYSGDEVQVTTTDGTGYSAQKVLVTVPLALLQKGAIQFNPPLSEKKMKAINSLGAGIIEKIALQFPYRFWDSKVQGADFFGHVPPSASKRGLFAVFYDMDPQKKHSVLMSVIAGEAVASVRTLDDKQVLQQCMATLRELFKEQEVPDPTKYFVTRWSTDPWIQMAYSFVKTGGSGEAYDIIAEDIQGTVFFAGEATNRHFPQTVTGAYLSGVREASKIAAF

[10] = tested on: Lgr5+ cells; assay: Lgr5+ Assay (Lgr5+ cell assay in vitro); type: cell-based
[11] = biological target: LSD1 (Homo sapiens, UniProt O60341); conditions: Table 18; read-out: Literat. Cell EC50; cited from earlier work
[12] = biological target: GSK-3 alpha (Homo sapiens, UniProt P49840); conditions: cited from earlier work
GSK-3 alpha, sequence (P49840 whole entry): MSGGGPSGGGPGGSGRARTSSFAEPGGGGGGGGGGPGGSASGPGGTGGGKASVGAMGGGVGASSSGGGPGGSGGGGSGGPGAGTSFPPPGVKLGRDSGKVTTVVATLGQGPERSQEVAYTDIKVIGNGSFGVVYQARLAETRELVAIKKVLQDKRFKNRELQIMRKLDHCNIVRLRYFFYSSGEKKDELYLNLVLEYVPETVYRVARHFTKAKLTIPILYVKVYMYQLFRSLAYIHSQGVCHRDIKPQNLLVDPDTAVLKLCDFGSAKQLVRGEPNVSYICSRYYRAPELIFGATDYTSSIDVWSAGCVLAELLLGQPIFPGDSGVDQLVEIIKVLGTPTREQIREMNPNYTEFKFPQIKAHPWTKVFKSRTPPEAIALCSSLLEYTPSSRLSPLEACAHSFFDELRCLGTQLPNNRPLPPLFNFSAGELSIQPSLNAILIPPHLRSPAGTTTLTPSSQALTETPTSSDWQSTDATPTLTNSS

[13] = biological target: GSK-3 beta (Homo sapiens, UniProt P49841); conditions: cited from earlier work
GSK-3 beta, sequence (P49841 whole entry): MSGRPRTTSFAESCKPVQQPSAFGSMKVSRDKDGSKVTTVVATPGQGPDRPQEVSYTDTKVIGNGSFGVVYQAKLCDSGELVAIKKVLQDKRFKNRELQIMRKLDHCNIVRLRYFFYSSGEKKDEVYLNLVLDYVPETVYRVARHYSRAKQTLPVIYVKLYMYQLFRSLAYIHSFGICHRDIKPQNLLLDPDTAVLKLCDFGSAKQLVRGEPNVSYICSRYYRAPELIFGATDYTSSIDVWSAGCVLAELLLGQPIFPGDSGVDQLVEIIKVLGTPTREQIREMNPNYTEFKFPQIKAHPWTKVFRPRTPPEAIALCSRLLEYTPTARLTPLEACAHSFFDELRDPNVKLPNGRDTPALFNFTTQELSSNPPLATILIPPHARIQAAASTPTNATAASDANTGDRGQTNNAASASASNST

[14] = tested on: HDAC; conditions: Mechanism HDAC Inhib 1, 2, 3, 8; cited from earlier work
[15] = type: physicochemical; conditions: lyophilized composition (Dosage 1) stored at 5° C., room temperature or 40° C. under 75% relative humidity in the dark
Method: Stability Analysis: The stability of the lyophilized composition formulation (Dosage 1) was analyzed upon storage at 5° C., room temperature, or 40° C. under 75% relative humidity in the dark Samples were taken at various time points, reconstituted as described in Example 4 and samples analyzed by HPLC. […] About 100% of sodium valproate remained.
Long-term stability of the lyophilized composition formulation (Dosage 1) was tested. The composition was held at room temperature (ambient) in the dark for two months and reconstituted as described in Example 4 below.

[16] = Reconstitution time of lyophilized compositions (Tables E, 28, 35); type: physicochemical
Method: Diluent 1, 0.85 mL+lyophilized cake. […] Gentle tapping on the exterior of the vessel to help the cake dissolve in the Diluent may be required while keeping it in fridge (or ice bath). To avoid degradation of the composition, minimize stirring and/or vortexing.
Diluent 1, 0.95 mL+Placebo cake: Using a syringe, add the Diluent to the Placebo cake, and rest in a fridge or ice bath (2-8° C.) for 60 minutes or until clear solution is formed. Gentle tapping on the exterior of the vessel to help the cake dissolve in the Diluent may be required while keeping it in fridge (or ice bath). To avoid degradation of the composition, minimize stirring and/or vortexing.
Powder P407 (i.e. non-lyophilized) can be obtained from BASF.
Reconstitution of lyophilized P407 (Placebo) and powder P407 was done using 850 μL Diluent (see above for example preparations of a Diluent) in a vial.
Therefore, to probe the effect of salts other than sodium valproate on reconstitution time, a poloxamer solution at 16.15% concentration either alone or including a salt (e.g. an inorganic salt or organic acid salt) at a concentration of 533.25 mM, was lyophilized. The lyophilized material was then reconstituted using Diluent for reconstitution (6.4% DMSO by wt. % in water) or with water.
Building on the results of Examples 14 to 16, further lyophilized compositions were manufactured and had their reconstitution times evaluated. […] The further lyophilized compositions were made in accordance with Example 10, and reconstituted in accordance with Example 12.

[17] = tested on: MAOs A and B; conditions: Table 18, one value, isoform not told; read-out: Select MAOs A and B; cited from earlier work
[18] = biological target: ErbB3/HER3 (Homo sapiens, UniProt P21860); conditions: read-out: HER 3 pKi or IC50 (converted); cited from earlier work
ErbB3/HER3, sequence (P21860 20-1342): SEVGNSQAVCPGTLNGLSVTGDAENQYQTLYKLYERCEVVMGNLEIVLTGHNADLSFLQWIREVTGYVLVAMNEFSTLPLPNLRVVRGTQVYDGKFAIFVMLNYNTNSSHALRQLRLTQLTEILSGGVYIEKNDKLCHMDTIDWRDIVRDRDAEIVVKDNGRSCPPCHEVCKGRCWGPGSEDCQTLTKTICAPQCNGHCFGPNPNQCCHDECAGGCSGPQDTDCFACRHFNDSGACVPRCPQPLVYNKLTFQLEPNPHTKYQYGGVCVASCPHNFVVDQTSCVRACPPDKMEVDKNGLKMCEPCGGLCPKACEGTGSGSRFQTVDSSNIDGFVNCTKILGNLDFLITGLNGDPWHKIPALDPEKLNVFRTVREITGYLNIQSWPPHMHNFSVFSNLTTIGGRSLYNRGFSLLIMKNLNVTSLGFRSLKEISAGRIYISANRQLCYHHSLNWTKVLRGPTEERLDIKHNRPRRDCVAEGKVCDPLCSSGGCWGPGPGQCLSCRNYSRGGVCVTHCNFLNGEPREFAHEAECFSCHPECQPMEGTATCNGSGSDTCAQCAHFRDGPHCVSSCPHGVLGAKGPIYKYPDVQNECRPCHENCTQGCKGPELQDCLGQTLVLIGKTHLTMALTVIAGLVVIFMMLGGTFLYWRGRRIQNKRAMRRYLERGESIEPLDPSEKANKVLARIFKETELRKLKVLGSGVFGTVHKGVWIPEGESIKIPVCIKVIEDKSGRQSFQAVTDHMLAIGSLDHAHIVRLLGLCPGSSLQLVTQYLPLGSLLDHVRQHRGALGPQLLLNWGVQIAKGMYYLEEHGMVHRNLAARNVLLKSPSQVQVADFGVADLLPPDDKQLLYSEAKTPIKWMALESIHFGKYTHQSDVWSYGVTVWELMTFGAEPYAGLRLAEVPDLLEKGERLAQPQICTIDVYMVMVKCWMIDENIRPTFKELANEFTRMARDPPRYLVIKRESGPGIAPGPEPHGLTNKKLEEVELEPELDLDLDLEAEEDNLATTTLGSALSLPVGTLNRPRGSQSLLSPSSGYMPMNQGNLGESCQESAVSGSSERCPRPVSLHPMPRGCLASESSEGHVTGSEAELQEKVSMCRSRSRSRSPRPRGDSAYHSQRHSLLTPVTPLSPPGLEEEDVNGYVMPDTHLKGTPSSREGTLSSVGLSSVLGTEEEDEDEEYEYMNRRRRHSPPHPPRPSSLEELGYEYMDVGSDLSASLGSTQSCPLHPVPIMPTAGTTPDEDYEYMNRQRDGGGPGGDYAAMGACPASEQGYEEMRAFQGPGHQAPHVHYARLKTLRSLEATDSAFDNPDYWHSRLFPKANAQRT

[19] = lyophilized composition GMP lot B17030018, Refrigerated, 1 month
[20] = lyophilized composition GMP lot B17030018, Refrigerated, 2 months
[21] = lyophilized composition GMP lot B17030018, Refrigerated, 3 months
[22] = lyophilized composition GMP lot B17030018, Refrigerated, 6 months
[23] = lyophilized composition GMP lot B17030018, Release, 0 month
[24] = lyophilized composition GMP lot B17030018, −20, 1 month
[25] = lyophilized composition GMP lot B17030018, −20, 2 months
[26] = lyophilized composition GMP lot B17030018, −20, 3 months
[27] = lyophilized composition GMP lot B17030018, −20, 6 months
[28] = lyophilized composition GMP lot B17030018, −20, 9 months
[29] = lyophilized composition GMP lot B17030018, −20, 12 months
[30] = lyophilized composition GMP lot B17030018, −20, 18 months
[31] = lyophilized composition GMP lot B17030018, −20, 24 months
[32] = Table 14, listed concentration, no test described

Row | SMILES | assay level over time [1] | Assay (drug content) [2, 19] | Assay (drug content) [2, 20] | Assay (drug content) [2, 21] | Assay (drug content) [2, 22] | Assay (drug content) [2, 23] | Assay (drug content) [2, 24] | Assay (drug content) [2, 25] | Assay (drug content) [2, 26] | Assay (drug content) [2, 27] | Assay (drug content) [2, 28] | Assay (drug content) [2, 29] | Assay (drug content) [2, 30] | Assay (drug content) [2, 31] | % Rel Error [4] | Conc. [4] | % Rel Error ([4]; 24 Hrs, refrigerator 2-8° C.) | Conc. ([4]; 24 Hrs, refrigerator 2-8° C.) | time assay levels remained stable with initial levels [5] | Perilymph Conc [7, 32] | further results
1 | Cc1cnc(-c2cnc(NCCNc3ccc(C#N)cn3)nc2-c2ccc(Cl)cc2Cl)[nH]1 [CHIR99021] | decreased from its initial level over time | 105% | 105% | 104% | 102% | 103% | 107% | 107% | 104% | 103% | 102% | 99% | 100% | 100% | 2.2% and 2.4% | 3470 µg/mL and 3480 µg/mL | −1.3% and 0.6% | 3360 µg/mL and 3420 µg/mL | 6 h | 2 to 6 µM | total impurities formed for CHIR99021 ([3]; over 4 hours): about 4.6%; decrease of assay level from its initial level ([5]; reconstituted test composition in refrigerated syringes, sometime between 8 and 24 hours): 37%; solubility of CHIR99021 [6]: very limited in almost all organic solvents except polar solvents, such as DMSO
2 | O=C(O)c1ccc(CN2CCC(CN[C@@H]3C[C@H]3c3ccccc3)CC2)cc1 [GSK-2879552] |  |  |  |  |  |  |  |  |  |  |  |  |  |  |  |  |  |  |  |  | Human Plasma Conc [8]: 1 to 100 nM; IC50 [9]: 20000 nM; Lgr5+ Assay ([10]; Table 18, lower end of concentration range): ≥ 40 nM-; EC50 [11]: 2 to 240 nM; Perilymph Conc ([7]; Table 18, lower end of range): ≥ 40 nM-; Perilymph Conc ([7]; Table 18, upper end of range): ≤ 30 µM
3 | O=C1NC(=O)C(c2cnc3ccccn23)=C1c1cn2c3c(cc(F)cc13)CN(C(=O)N1CCCCC1)CC2 [LY2090314, 3-(9-fluoro-2-(piperidine-1-carbonyl)-1,2,3,4-tetrahydro-[1,4]diazepino[6,7,1-hi]indol-7-yl)-4-(imidazo[1,2-a]pyridin-3-yl)-1H-pyrrole-2,5-dione] |  |  |  |  |  |  |  |  |  |  |  |  |  |  |  |  |  |  |  | 0.005 to 0.02 µM | GSK-3 alpha [12]: 2.1 nM; Lgr5+ Assay ([10]; Table 14): 5 to 20 nM; GSK-3 beta [13]: 0.9 nM
4 | CCCC(CCC)C(=O)O [Sodium Valproate, Sodium 2-propylpentanoate] | remained constant over this time | 100% | 100% | 100% | 99% | 100% | 101% | 100% | 100% | 100% | 99% | 99% | 101% | 98% | 7.3% and 5.5% | 102900 µg/mL and 101100 µg/mL | 5.3% and 7.5% | 101000 µg/mL and 103100 µg/mL | 6 h |  | sodium valproate remained in the solution ([3]; 4 hours): about 100%; Lgr5+ Assay ([10]; HDAC inhibitor table, upper end of the wrapped range 100 uM-4 mM): ≤ 4e+06 nM; assay level ([5]; reconstituted test composition in refrigerated syringes, up to 24 hours): remained constant over this time; HDAC Potenc [14]: 39 to 161 µM; sodium valproate remained [15]: About 100%; Perilymph Conc ([7]; HDAC inhibitor table, upper end of the wrapped range 100 uM-4 mM, no test described): ≤ 4000 µM; Reconstitution time (minutes) water + DMSO ([16]; lyophilized 16.15% P407 with salt at 533.25 mM, reconstituted with Diluent ([…] DMSO in water)): 25 min; Reconstitution time (minutes) with water ([16]; lyophilized 16.15% P407 with salt at 533.25 mM, reconstituted with water): 20 min; reconstitution time of lyophilized poloxamer with added organic acid salt ([16]; poloxamer 16.15%, salt 533.25 mM): 420 min
5 | N[C@@H]1C[C@H]1c1ccccc1 [TCP] |  |  |  |  |  |  |  |  |  |  |  |  |  |  |  |  |  |  |  |  | Human Plasma Conc Cmax [8]: 0.03 to 0.2 µg/mL; IC50 [17]: 1000 nM; Lgr5+ Assay ([10]; Table 18, concentration range or its upper end): 100 to 20000 nM; Perilymph Conc ([7]; Table 18, range or its upper end): 0.1 to 20 µM
6 | CN1CCN(Cc2ccc(NC(=O)Cc3ccc(Oc4cc(NC(=O)C5CC5)ncn4)cc3)cc2C(F)(F)F)CC1 [WS6] |  |  |  |  |  |  |  |  |  |  |  |  |  |  |  |  |  |  |  |  | IC50 [18]: 280 nM
